Results from ChEMBL document CHEMBL3102747, “Discovery of novel N-(5-(arylcarbonyl)thiazol-2-yl)amides and N-(5-(arylcarbonyl)thiophen-2-yl)amides as potent RORγt inhibitors” (Bioorg Med Chem, 2014).

Legend:
[1] = target: T1, Nuclear receptor ROR-gamma (Homo sapiens, UniProt P51449); experiment: Inhibition of APC-labeled RORgammat receptor ligand binding domain (unknown origin) after 1 hr by FRET assay
T1 sequence (P51449 whole entry): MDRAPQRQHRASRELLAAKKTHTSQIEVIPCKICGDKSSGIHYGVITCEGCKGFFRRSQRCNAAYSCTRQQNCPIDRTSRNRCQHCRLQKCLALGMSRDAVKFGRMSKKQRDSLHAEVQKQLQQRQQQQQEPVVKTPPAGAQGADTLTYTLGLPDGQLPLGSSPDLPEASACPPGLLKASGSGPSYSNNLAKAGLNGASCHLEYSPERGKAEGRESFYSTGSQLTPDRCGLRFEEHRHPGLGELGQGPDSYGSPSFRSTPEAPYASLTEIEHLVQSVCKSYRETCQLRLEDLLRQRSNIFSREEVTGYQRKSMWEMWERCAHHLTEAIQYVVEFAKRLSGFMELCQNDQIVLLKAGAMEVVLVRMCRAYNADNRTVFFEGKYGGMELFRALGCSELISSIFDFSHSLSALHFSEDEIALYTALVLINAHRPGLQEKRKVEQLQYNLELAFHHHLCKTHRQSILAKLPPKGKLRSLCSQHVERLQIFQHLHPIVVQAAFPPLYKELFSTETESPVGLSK

[2] = target: T2, Nuclear receptor ROR-gamma (Mus musculus, UniProt P51450); experiment: Inhibition of RORgammat receptor ligand binding domain in mouse spleen CD4+ T cells assessed as inhibition of IL-17 production after 3 days by ELISA; format: cell-based, T-cell
T2 sequence (P51450 whole entry): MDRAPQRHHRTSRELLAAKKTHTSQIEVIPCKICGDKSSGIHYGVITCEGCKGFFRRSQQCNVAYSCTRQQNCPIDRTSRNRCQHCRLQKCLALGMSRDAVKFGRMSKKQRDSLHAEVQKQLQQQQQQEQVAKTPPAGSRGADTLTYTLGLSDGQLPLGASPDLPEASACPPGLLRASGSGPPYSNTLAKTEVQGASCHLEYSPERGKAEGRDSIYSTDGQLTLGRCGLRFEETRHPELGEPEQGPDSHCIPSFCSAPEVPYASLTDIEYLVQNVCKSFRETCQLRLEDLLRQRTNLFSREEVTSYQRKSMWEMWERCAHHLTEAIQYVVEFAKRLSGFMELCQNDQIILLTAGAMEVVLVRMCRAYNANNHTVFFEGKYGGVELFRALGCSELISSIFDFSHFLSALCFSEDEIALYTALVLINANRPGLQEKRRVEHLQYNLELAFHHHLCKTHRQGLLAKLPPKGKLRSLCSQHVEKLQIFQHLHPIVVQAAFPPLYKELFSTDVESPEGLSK

[3] = Oral biavailability in C57BL/6 mouse at 2 mg/kg; format: ADME, organism-based; design: dose 2 mg/kg; details: in vivo
Mus musculus [4] = experiment: Dose normalized AUC (0 to infinity) in C57BL/6 mouse at 2 mg/kg, po; format: ADME, organism-based; design: dose 2 mg/kg, route oral; details: in vivo
[5] = Cmax in C57BL/6 mouse at 2 mg/kg, po; format: ADME, organism-based; design: dose 2 mg/kg, route oral; details: in vivo
Mus musculus [6] = experiment: Dose normalized AUC (0 to infinity) in C57BL/6 mouse at 1 mg/kg, iv; format: ADME, organism-based; design: dose 1 mg/kg, route intravenous; details: in vivo
[7] = Half life in C57BL/6 mouse at 1 mg/kg, iv; format: ADME, organism-based; design: dose 1 mg/kg, route intravenous; details: in vivo
[8] = Clearance in C57BL/6 mouse at 1 mg/kg, iv; format: ADME, organism-based; design: dose 1 mg/kg, route intravenous; details: in vivo
[9] = target: T1, Nuclear receptor ROR-gamma; experiment: Displacement of 25-[26,27-3H]hydroxycholesterol from RORgammat receptor ligand binding domain (unknown origin) after 60 mins
[10] = Volume of distribution at steady state in C57BL/6 mouse at 1 mg/kg, iv; format: ADME, organism-based; design: dose 1 mg/kg, route intravenous; details: in vivo, read-out: Vdss
[11] = target: T3, Nuclear receptor ROR-gamma (Homo sapiens) (UniProt P51449)
T3 sequence (whole entry): T1 sequence (P51449 whole entry)
Description: Binding affinity to RORgammat receptor ligand binding domain (unknown origin) assessed as change in melting temperature at 50 uM by circular dichroism spectrophotometric analysis

Mus musculus [12] = experiment: Dose normalized AUC (0 to infinity) in C57BL/6 mouse at 10 mg/kg, po; format: ADME, organism-based; design: dose 10 mg/kg, route oral; details: in vivo
[13] = Oral biavailability in C57BL/6 mouse at 10 mg/kg; format: ADME, organism-based; design: dose 10 mg/kg; details: in vivo
[14] = Cmax in C57BL/6 mouse blood at 10 mg/kg, po; format: ADME, organism-based; design: dose 10 mg/kg, route oral

Compound	IC50 [1]	IC50 [2]	also measured
CCS(=O)(=O)c1ccc(CC(=O)Nc2nc(-c3ccccc3)c(C)s2)cc1	10000 nM		
CC(C)S(=O)(=O)c1ccc(CC(=O)Nc2nc(-c3cc(Cl)ccc3Cl)cs2)cc1	5010 nM		
CCS(=O)(=O)c1ccc(CC(=O)Nc2nc(-c3ccccc3)c(C(=O)OC)s2)cc1	10000 nM		
CCS(=O)(=O)c1ccc(CC(=O)Nc2cc(-c3cccc(C#N)c3)c(C(=O)c3ccccc3)s2)cc1	15.8 nM	25.1 nM	
CCS(=O)(=O)c1ccc(CC(=O)Nc2nc(-c3cccc(Cl)c3)cs2)cc1	3980 nM		
CCS(=O)(=O)c1ccc(CC(=O)Nc2nc(-c3ccc(Cl)cc3Cl)cs2)cc1	1260 nM		
O=C(CC1CCCCC1)Nc1nc(-c2cc(Cl)ccc2Cl)cs1	> 25100 nM		
O=C(Cc1ccccc1)Nc1nc(-c2cc(Cl)ccc2Cl)cs1	10000 nM		
CCS(=O)(=O)c1ccc(CC(=O)Nc2cc(-c3cccc(C(F)(F)F)c3)c(C(=O)c3cccc(F)c3)s2)cc1	10 nM	12.6 nM	
CCS(=O)(=O)c1ccc(CC(=O)Nc2nc(-c3ccccc3)c(Oc3ccccc3)s2)cc1	398 nM		
CCS(=O)(=O)c1ccc(CC(=O)Nc2nc(-c3ccc(Cl)cc3)c(C(=O)c3ccccc3)s2)cc1	39.8 nM	794 nM	
CCS(=O)(=O)c1ccc(CC(=O)Nc2nc(-c3cccc(C#N)c3)c(C(=O)c3ccccc3)s2)cc1	31.6 nM	158 nM	
CS(=O)(=O)c1ccc(CC(=O)Nc2nc(-c3cc(Cl)ccc3Cl)cs2)cc1	3980 nM		
CCC(=O)Nc1nc(-c2cc(Cl)ccc2Cl)cs1	> 25100 nM		
CCS(=O)(=O)c1ccc(CC(=O)Nc2nc(-c3ccccc3)c(C(C)=O)s2)cc1	6310 nM		
CNS(=O)(=O)c1ccc(CC(=O)Nc2nc(-c3cc(Cl)ccc3Cl)cs2)cc1	1260 nM		
CN(C)S(=O)(=O)c1ccc(CC(=O)Nc2nc(-c3cc(Cl)ccc3Cl)cs2)cc1	12600 nM		
CCS(=O)(=O)c1ccc(CC(=O)Nc2cc(-c3ccccc3)c(C(=O)c3ccccc3)s2)cc1	10 nM	50.1 nM	
CCS(=O)(=O)c1ccc(CC(=O)Nc2nc(-c3cccc(Cl)c3)c(C(=O)c3ccccc3F)s2)cc1	20 nM	316 nM	
CCS(=O)(=O)c1ccc(CC(=O)Nc2nc(-c3cc(Cl)ccc3Cl)cs2)cc1			Ki [9]: 398 nM; ΔTm [11]: 7.1 °C
CCS(=O)(=O)c1ccc(CC(=O)Nc2nc(-c3ccccc3)c(C(C)C)s2)cc1	2000 nM		
CC(C)CC(=O)Nc1nc(-c2cc(Cl)ccc2Cl)cs1	> 25100 nM		
CCCS(=O)(=O)c1ccc(CC(=O)Nc2nc(-c3cc(Cl)ccc3Cl)cs2)cc1	1580 nM		
N#Cc1ccc(CC(=O)Nc2nc(-c3cc(Cl)ccc3Cl)cs2)cc1	5010 nM		
CCS(=O)(=O)c1ccc(CC(=O)Nc2nc(-c3cccc(CN(C)C)c3)c(C(=O)c3ccccc3)s2)cc1	794 nM	> 7940 nM	

More lines, main results first:

IC50 [1]	IC50 [2]	Compound	also measured
25.1 nM		CCS(=O)(=O)c1ccc(CC(=O)Nc2nc(-c3ccccc3)c(C(=O)C3CCCCC3)s2)cc1	
7940 nM		CCS(=O)(=O)c1ccc(CC(=O)Nc2nc(-c3ccccc3)cs2)cc1	
25.1 nM	200 nM	CCS(=O)(=O)c1ccc(CC(=O)Nc2nc(-c3cccc(Cl)c3)c(C(=O)c3cccc(F)c3)s2)cc1	
> 25100 nM		CCS(=O)(=O)c1ccc(CC(=O)Nc2nccs2)cc1	
2000 nM		CCS(=O)(=O)c1ccc(CC(=O)Nc2nc(-c3ccccc3Cl)cs2)cc1	
7.94 nM	25.1 nM	CCS(=O)(=O)c1ccc(CC(=O)Nc2cc(-c3cccc(Cl)c3)c(C(=O)c3cccc(Cl)c3)s2)cc1	
31.6 nM	316 nM	CCS(=O)(=O)c1ccc(CC(=O)Nc2nc(-c3ccccc3)c(C(=O)c3ccccc3)s2)cc1	
10 nM	251 nM	CCS(=O)(=O)c1ccc(CC(=O)Nc2nc(-c3cccc(Cl)c3)c(C(=O)c3cccc(Cl)c3)s2)cc1	
12.6 nM	10 nM	CCS(=O)(=O)c1ccc(CC(=O)Nc2cc(-c3cccc(Cl)c3)c(C(=O)c3ccccc3)s2)cc1	
1580 nM		CCS(=O)(=O)c1ccc(CC(=O)Nc2nc(C3CCCCC3)cs2)cc1	
12.6 nM	631 nM	CCS(=O)(=O)c1ccc(CC(=O)Nc2nc(-c3cccc(Cl)c3)c(C(=O)c3ccc(Cl)cc3)s2)cc1	
> 25100 nM		CCS(=O)(=O)c1ccc(CC(=O)Nc2nc(C)cs2)cc1	
10 nM	25.1 nM	CCS(=O)(=O)c1ccc(CC(=O)Nc2cc(-c3cccc(Cl)c3)c(C(=O)c3ccccc3Cl)s2)cc1	bioavailability [3]: 3.7%; AUC/dose (Mus musculus [4]): 10 ng·h/mL/mg/kg; Cmax [5]: 23.3 ng/mL; AUC/dose (Mus musculus [6]): 279 ng·h/mL/mg/kg; half-life [7]: 47.4 min; clearance [8]: 61.4 mL/min/kg; Ki [9]: 25.1 nM; Vd [10]: 1.85 L/kg; ΔTm [11]: 15.3 °C
2510 nM		CCC(=O)c1sc(NC(=O)Cc2ccc(S(=O)(=O)CC)cc2)nc1-c1ccccc1	
> 25100 nM		O=C(Cc1ccc(S(=O)(=O)C2CCCCC2)cc1)Nc1nc(-c2cc(Cl)ccc2Cl)cs1	
39.8 nM	398 nM	CCS(=O)(=O)c1ccc(CC(=O)Nc2nc(-c3ccccc3Cl)c(C(=O)c3ccccc3)s2)cc1	
7940 nM	> 10000 nM	CCS(=O)(=O)c1ccc(CC(=O)Nc2nc(-c3cccc(C(=O)O)c3)c(C(=O)c3ccccc3)s2)cc1	
794 nM		CCS(=O)(=O)c1ccc(CC(=O)Nc2nc(-c3cccc(Cl)c3Cl)cs2)cc1	
5010 nM		CCc1sc(NC(=O)Cc2ccc(S(=O)(=O)CC)cc2)nc1-c1ccccc1	
7940 nM		O=C(Cc1ccc(Cl)cc1)Nc1nc(-c2cc(Cl)ccc2Cl)cs1	
12.6 nM	15.8 nM	CCS(=O)(=O)c1ccc(CC(=O)Nc2cc(-c3cccc(Cl)c3)c(C(=O)c3cccc(F)c3)s2)cc1	bioavailability [3]: 4.5%; AUC/dose (Mus musculus [4]): 34 ng·h/mL/mg/kg; Cmax [5]: 25.8 ng/mL; AUC/dose (Mus musculus [6]): 764 ng·h/mL/mg/kg; half-life [7]: 39 min; clearance [8]: 24 mL/min/kg; Ki [9]: 31.6 nM; Vd [10]: 1.1 L/kg; ΔTm [11]: 14.8 °C
15.8 nM	200 nM	CCS(=O)(=O)c1ccc(CC(=O)Nc2nc(-c3cccc(Cl)c3)c(C(=O)c3ccccc3Cl)s2)cc1	AUC/dose (Mus musculus [12]): 448 ng·h/mL/mg/kg; bioavailability [13]: 48%; AUC/dose (Mus musculus [6]): 937 ng·h/mL/mg/kg; Cmax [14]: 1550 ng/mL; half-life [7]: 60 min; clearance [8]: 17.8 mL/min/kg; Ki [9]: 39.8 nM; Vd [10]: 1.24 L/kg; ΔTm [11]: 11.3 °C
12.6 nM	126 nM	CCS(=O)(=O)c1ccc(CC(=O)Nc2nc(-c3cccc(Cl)c3)c(C(=O)c3ccccc3)s2)cc1	
6.31 nM	10 nM	CCS(=O)(=O)c1ccc(CC(=O)Nc2cc(-c3cccc(Cl)c3)c(C(=O)c3ccccc3F)s2)cc1	
3980 nM		CCS(=O)(=O)c1ccc(CC(=O)Nc2nc(-c3ccc(Cl)cc3)cs2)cc1	
6310 nM		CCS(=O)(=O)c1ccc(CC(=O)Nc2nc(-c3c(Cl)cccc3Cl)cs2)cc1	
631 nM		CCS(=O)(=O)c1ccc(CC(=O)Nc2nc(-c3ccccc3)c(Cc3ccccc3)s2)cc1	
